Laboratory results from patent US20040003429A1, “Pest control system” (priority 2000, published 2004).
Where two headings read alike, the source gives them in different places.

Tests used:
[1] = test system: Drosophila melanogaster (strain OR/R); assay: survival of flies after insecticide treatment (FIG. 1); format: in vivo; settings: 16 h after insecticide-treatment
[2] = test system: Ceratitis capitata (strain Benakeion); assay: as above; format: in vivo; settings: 16 h after insecticide-treatment
[3] = test system: acetylcholinesterase (AchE); settings: cited from earlier work
[4] = test system: tobacco budworm Heliothis virescens; settings: cited from earlier work
[5] = test system: adult boll weevil Anthonomus granids Boheman; settings: cited from earlier work
[6] = test system: nicotinergic acetylcholine receptor (nAcR); settings: relative to imidacloprid; cited from earlier work
housefly = settings: relative to imidacloprid; cited from earlier work
[7] = test system: mixed function oxidase system; settings: in vitro mixed function oxidase system; cited from earlier work

| Compound | activity compared to Methamidophos [1] | sensitivity of flies ((%) survival) [1] | activity compared to Methamidophos [2] | sensitivity of flies ((%) survival) [2] | AchE inhibition [3] | activity in the tobacco budworm ([4]; acephate compared with methamidophos) | methamidophos observed in budworm larvae ([4]; within 2 hours of a topical acephate application) | fold more toxic than acephate [5] [fold] | activity in the tobacco budworm ([4]; in vivo) | decrease of binding affinity to nAcR [6] [fold] | potency in the housefly (housefly) | conversion to imidacloprid [7] |
| --- | --- | --- | --- | --- | --- | --- | --- | --- | --- | --- | --- | --- |
| COP(=O)(NC(C)=O)SC (stereo not drawn) [Acephate, O, S dimethyl acetylphosphoramidothicate] | less active | sensitive | less active | sensitive | not an AchE inhibitor | comparable activity | small amount of methamidophos |  |  |  |  |  |
| COP(N)(=O)SC (stereo not drawn) [Methamidophos, O, S-dimethyl phosphoramidothicate] |  | sensitive |  | sensitive | potent acetylcholinesterase (AchE) inhibitor |  |  | 75 | comparable activity |  |  |  |
| CN1CCN(Cc2ccc(Cl)nc2)C1=N[N+](=O)[O-] [N-Me-imidacloprid] |  |  |  |  |  |  |  |  |  | 100 | as potent as imidacloprid | can be converted to imidacloprid |
